Reference: patent US20250197406A1, “INDAZOLES AS HEMATOPOIETIC PROGENITOR KINASE 1 (HPK1) INHIBITORS AND METHODS FOR USING SAME” (1ST Biotherapeutics, Inc., priority 2022, published 2025)

Target: recombinant human HPK1 (Homo sapiens (Human), UniProt Q92918)
Assay: HPK1 kinase assay (Promega ADP-Glo kinase assay)
Format: biochemical
Settings: In vitro activity against HPK1, 5 ng HPK1, MBP substrate, ATP 25 μM, 30° C. 40 minutes
Outline: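 ADP-Glo luminescence assay with 5 ng recombinant human HPK1, MBP substrate and ATP (added as 25 µM solution) in Tris pH 7.5, 20 mM MgCl2, BSA, DTT, 0.5% DMSO. Reaction ran 40 min at 30 °C. IC50 was fitted from percent inhibition over an inhibitor concentration range.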

Chain of recombinant human HPK1 (Q92918 whole entry): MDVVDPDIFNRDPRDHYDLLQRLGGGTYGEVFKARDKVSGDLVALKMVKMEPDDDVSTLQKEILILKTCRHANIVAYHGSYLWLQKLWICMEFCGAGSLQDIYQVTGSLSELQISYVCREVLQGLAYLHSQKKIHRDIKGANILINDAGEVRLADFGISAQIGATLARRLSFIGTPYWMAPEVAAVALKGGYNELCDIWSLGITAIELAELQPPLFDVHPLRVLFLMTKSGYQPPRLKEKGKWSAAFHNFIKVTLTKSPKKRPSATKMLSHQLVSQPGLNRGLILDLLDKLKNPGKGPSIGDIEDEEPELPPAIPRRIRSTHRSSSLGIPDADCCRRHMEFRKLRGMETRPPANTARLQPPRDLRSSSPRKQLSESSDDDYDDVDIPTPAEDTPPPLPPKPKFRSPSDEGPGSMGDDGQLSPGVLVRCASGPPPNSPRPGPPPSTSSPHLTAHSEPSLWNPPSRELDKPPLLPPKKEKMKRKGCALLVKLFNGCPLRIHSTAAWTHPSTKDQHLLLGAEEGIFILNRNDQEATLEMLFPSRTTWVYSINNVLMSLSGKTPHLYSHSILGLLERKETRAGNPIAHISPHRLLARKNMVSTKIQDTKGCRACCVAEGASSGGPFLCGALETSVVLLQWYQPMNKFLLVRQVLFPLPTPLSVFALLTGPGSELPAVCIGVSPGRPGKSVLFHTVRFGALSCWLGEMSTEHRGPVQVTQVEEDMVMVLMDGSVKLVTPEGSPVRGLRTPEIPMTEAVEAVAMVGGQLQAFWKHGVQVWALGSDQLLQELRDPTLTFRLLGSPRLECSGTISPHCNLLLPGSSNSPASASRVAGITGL

| SMILES | IC50 |
| --- | --- |
| CC(C)Nc1c(F)c(Cl)c(-c2cn3cc(NC(=O)C4CCOC4)nc3cn2)c2cn[nH]c12 (centres unmarked) [Example 125, N-(6-(5-chloro-6-fluoro-7-(isopropylamino)-1H-indazol-4-yl)imidazo[1,2-a]pyrazin-2-yl)tetrahydrofuran-3-carboxamide] | < 100 nM |
| COC(c1c(F)c(C)c(-c2cn3cc(NC(=O)[C@@H]4C[C@@H]4F)nc3cn2)c2cn[nH]c12)C1CC1 (stereo partly drawn) [Example 2, (1S,2S)-N-(6-(7-(cyclopropyl(methoxy)methyl)-6-fluoro-5-methyl-1H-indazol-4-yl)imidazo[1,2-a]pyrazin-2-yl)-2-fluorocyclopropane-1-carboxamide] | < 100 nM |
| CC(C)Nc1c(F)c(C(F)F)c(-c2cn3cc(NC(=O)[C@@H]4C[C@@H]4F)nc3cn2)c2cn[nH]c12 [Example 28, (1S,2S)-N-(6-(5-(difluoromethyl)-6-fluoro-7-(isopropylamino)-1H-indazol-4-yl)imidazo[1,2-a]pyrazin-2-yl)-2-fluorocyclopropane-1-carboxamide] | < 100 nM |
| Cc1c(F)c(C(NC(=O)C(F)(F)F)C2CC2)c2[nH]ncc2c1-c1cn2cc(NC(=O)[C@@H]3C[C@@H]3F)nc2cn1 (stereo partly drawn) [Example 107, (1S,2S)-N-(6-(7-(cyclopropyl(2,2,2-trifluoroacetamido)methyl)-6-fluoro-5-methyl-1H-indazol-4-yl)imidazo[1,2-a]pyrazin-2-yl)-2-fluorocyclopropane-1-carboxamide] | < 100 nM |
| CN(C)c1c(F)c(C(F)(F)F)c(-c2cn3cc(NC(=O)[C@H]4C[C@@H]4F)nc3cn2)c2cn[nH]c12 [Example 31, (1R,2S)-N-(6-(7-(dimethylamino)-6-fluoro-5-(trifluoromethyl)-1H-indazol-4-yl)imidazo[1,2-a]pyrazin-2-yl)-2-fluorocyclopropane-1-carboxamide] | < 100 nM |
| Cc1c(F)c(NC(C)C)c2[nH]ncc2c1-c1cn2cc(NC(=O)[C@H]3C[C@@H]3F)nc2cn1 [Example 35, (1R,2S)-2-fluoro-N-(6-(6-fluoro-7-(isopropylamino)-5-methyl-1H-indazol-4-yl)imidazo[1,2-a]pyrazin-2-yl)cyclopropane-1-carboxamide] | < 100 nM |
| CC(C)Nc1c(F)c(Cl)c(-c2cn3cc(NC(=O)[C@@H]4C[C@@H]4C(=O)O)nc3cn2)c2cn[nH]c12 [Example 20, (1S,2R)-2-((6-(5-chloro-6-fluoro-7-(isopropylamino)-1H-indazol-4-yl)imidazo[1,2-a]pyrazin-2-yl)carbamoyl)cyclopropane-1-carboxylic acid] | < 100 nM |
| CC(NC=O)c1c(F)c(C(F)(F)F)c(-c2cn3cc(NC(=O)[C@@H]4C[C@@H]4F)nc3cn2)c2cn[nH]c12 (stereo partly drawn) [Example 96, (1S,2S)-2-fluoro-N-(6-(6-fluoro-7-(1-formamidoethyl)-5-(trifluoromethyl)-1H-indazol-4-yl)imidazo[1,2-a]pyrazin-2-yl)cyclopropane-1-carboxamide] | < 100 nM |
| O=C(Nc1cn2cc(-c3c(C(F)F)c(F)c(C(O)C4CC4)c4[nH]ncc34)ncc2n1)[C@@H]1C[C@@H]1F (stereo partly drawn) [Example 19, (1S,2S)-N-(6-(7-(cyclopropyl(hydroxy)methyl)-5-(difluoromethyl)-6-fluoro-1H-indazol-4-yl)imidazo[1,2-a]pyrazin-2-yl)-2-fluorocyclopropane-1-carboxamide] | < 100 nM |
| Cc1c(F)c(C(C)NC(=O)C(F)(F)F)c2[nH]ncc2c1-c1cn2cc(NC(=O)[C@@H]3C[C@@H]3F)nc2cn1 (stereo partly drawn) [Example 71, (1S,2S)-2-fluoro-N-(6-(6-fluoro-5-methyl-7-(1-(2,2,2-trifluoroacetamido)ethyl)-1H-indazol-4-yl)imidazo[1,2-a]pyrazin-2-yl)cyclopropane-1-carboxamide] | < 100 nM |
| C[C@H](N[S@@+]([O-])C(C)(C)C)c1c(F)c(Cl)c(-c2cn3cc(NC(=O)[C@@H]4C[C@@H]4F)nc3cn2)c2cn[nH]c12 [Example 132, (1S,2S)-N-(6-(7-((S)-1-(((S)-tert-butylsulfinyl)amino)ethyl)-5-chloro-6-fluoro-1H-indazol-4-yl)imidazo[1,2-a]pyrazin-2-yl)-2-fluorocyclopropane-1-carboxamide] | < 100 nM |

More lines, now with the values ahead:

| IC50 | SMILES |
| --- | --- |
| < 100 nM | COc1c(F)c(NC(C)C)c2[nH]ncc2c1-c1cn2cc(NC(=O)C3CC3)nc2cn1 [Example 160, N-(6-(6-fluoro-7-(isopropylamino)-5-methoxy-1H-indazol-4-yl)imidazo[1,2-a]pyrazin-2-yl)cyclopropanecarboxamide] |
| 101 to 500 nM | CC(=O)Nc1cn2cc(-c3c(Cl)c(F)c([C@H](C)N[S@@+]([O-])C(C)(C)C)c4[nH]ncc34)ncc2n1 [Example 134, N-(6-(7-((S)-1-(((S)-tert-butylsulfinyl)amino)ethyl)-5-chloro-6-fluoro-1H-indazol-4-yl)imidazo[1,2-a]pyrazin-2-yl)acetamide] |
| 501 to 1000 nM | CCC(=O)N1CC(Oc2c(F)c(Cl)c(-c3cn4cc(NC(C)=O)nc4cn3)c3cn[nH]c23)C1 [Example 149, N-(6-(5-chloro-6-fluoro-7-((1-propionylazetidin-3-yl)oxy)-1H-indazol-4-yl)imidazo[1,2-a]pyrazin-2-yl)acetamide] |
| < 100 nM | CC(=O)Nc1cn2cc(-c3c(Cl)c(F)c([C@H](C)NC(=O)C(F)(F)F)c4[nH]ncc34)ncc2n1 [Example 138, (S)-N-(1-(4-(2-acetamidoimidazo[1,2-a]pyrazin-6-yl)-5-chloro-6-fluoro-1H-indazol-7-yl)ethyl)-2,2,2-trifluoroacetamide] |
| < 100 nM | COc1c(F)c(N(C)C)c2[nH]ncc2c1-c1cn2cc(NC(=O)[C@@H]3C[C@@H]3F)nc2cn1 [Example 136, (1S,2S)-N-(6-(7-(dimethylamino)-6-fluoro-5-methoxy-1H-indazol-4-yl)imidazo[1,2-a]pyrazin-2-yl)-2-fluorocyclopropane-1-carboxamide] |
| < 100 nM | CC(C)Nc1c(F)c(Cl)c(-c2cn3cc(NC(=O)Cc4cocn4)nc3cn2)c2cn[nH]c12 [Example 144, N-(6-(5-chloro-6-fluoro-7-(isopropylamino)-1H-indazol-4-yl)imidazo[1,2-a]pyrazin-2-yl)-2-(oxazol-4-yl)acetamide] |
